Legend:
[1] = system: Puccinia recondita f. Sp. Tritici; test: Fungicidal activity against Puccinia recondita f. sp. tritici / wheat / leaf disc preventative (brown rust); type: in vivo; conditions: foliar, 200 ppm in the applied formulation, wheat leaf segments cv. Kanzler, preventative (inoculated 1 day after application), compared to untreated, read-out: disease control
Method: Leaf disks or leaf segments of various plant species are cut from plants grown in a greenhouse. The cut leaf disks or segments are placed in multiwell plates (24-well format) onto water agar. The leaf disks are sprayed with a test solution before (preventative) or after (curative) inoculation. Compounds to be tested are prepared as DMSO solutions (max. 10 mg/mL) which are diluted to the appropriate concentration with 0.025% Tween20 just before spraying. The inoculated leaf disks or segments are incubated under defined conditions (temperature, relative humidity, light, etc.) according to the respective test system. A single evaluation of disease level is carried out 3 to 14 days after inoculation, depending on the pathosystem. Percent disease control relative to the untreated check leaf disks or segments is then calculated. Wheat leaf segments cv. Kanzler were placed on agar in multiwell plates (24-well format) and sprayed with the formulated test compound diluted in water. The leaf disks were inoculated with a spore suspension of the fungus 1 day after application. The inoculated leaf segments were incubated at 19° C. and 75% relative humidity (rh) under a light regime of 12 hours light/12 hours darkness in a climate cabinet and the activity of a compound was assessed as percent disease control compared to untreated when an appropriate level of disease damage appears in untreated check leaf segments (7 to 9 days after application). The following compounds at 200 ppm in the applied formulation give at least 80% disease control in this test when compared to untreated control leaf disks under the same conditions, which show extensive disease development.

[2] = system: Puccinia recondita f. Sp. Tritici; test: Fungicidal activity against Puccinia recondita f. sp. tritici / wheat / leaf disc curative (brown rust); type: in vivo; conditions: foliar, 24 h, 200 ppm in the applied formulation, wheat leaf segments cv. Kanzler, curative (applied 1 day after inoculation), compared to untreated, read-out: disease control
Method: Leaf disks or leaf segments of various plant species are cut from plants grown in a greenhouse. The cut leaf disks or segments are placed in multiwell plates (24-well format) onto water agar. The leaf disks are sprayed with a test solution before (preventative) or after (curative) inoculation. Compounds to be tested are prepared as DMSO solutions (max. 10 mg/mL) which are diluted to the appropriate concentration with 0.025% Tween20 just before spraying. The inoculated leaf disks or segments are incubated under defined conditions (temperature, relative humidity, light, etc.) according to the respective test system. A single evaluation of disease level is carried out 3 to 14 days after inoculation, depending on the pathosystem. Percent disease control relative to the untreated check leaf disks or segments is then calculated. Wheat leaf segments cv. Kanzler are placed on agar in multiwell plates (24-well format). The leaf segments are then inoculated with a spore suspension of the fungus. Plates were stored in darkness at 19C and 75% relative humidity. The formulated test compound diluted in water was applied 1 day after inoculation. The leaf segments were incubated at 19° C. and 75% relative humidity under a light regime of 12 hours light/12 hours darkness in a climate cabinet and the activity of a compound was assessed as percent disease control compared to untreated when an appropriate level of disease damage appears in untreated check leaf segments (6 to 8 days after application). The following compounds at 200 ppm in the applied formulation give at least 80% disease control in this test when compared to untreated control leaf disks under the same conditions, which show extensive disease development.

[3] = system: Glomerella lagenarium (Colletotrichum lagenarium); test: Fungicidal activity against Glomerella lagenarium (Colletotrichum lagenarium) liquid culture / cucumber / preventative (anthracnose); type: cell-based; conditions: Colletotrichum orbiculare; 20 ppm in the applied formulation; liquid culture (PDB), inhibition of growth measured photometrically 3 to 4 days after application; compared to untreated; read-out: disease control
Method: Mycelia fragments or conidia suspensions of a fungus prepared either freshly from liquid cultures of the fungus or from cryogenic storage, are directly mixed into nutrient broth. DMSO solutions of the test compound (max. 10 mg/mL) are diluted with 0.025% Tween20 by a factor of 50 and 10 μL of this solution is pipetted into a microtiter plate (96-well format). The nutrient broth containing the fungal spores/mycelia fragments is then added to give an end concentration of the tested compound. The test plates are incubated in the dark at 24° C. and 96% relative humidity. The inhibition of fungal growth is determined photometrically after 2 to 7 days, depending on the pathosystem, and percent antifungal activity relative to the untreated check is calculated. Conidia of the fungus from cryogenic storage are directly mixed into nutrient broth (PDB—potato dextrose broth). After placing a (DMSO) solution of test compound into a microtiter plate (96-well format), the nutrient broth containing the fungal spores is added. The test plates are incubated at 24° C. and the inhibition of growth is measured photometrically 3 to 4 days after application. The following compounds at 20 ppm in the applied formulation give at least 80% disease control in this test when compared to untreated control under the same conditions, which show extensive disease development.

Question: How did the pest or weed control at 200 ppm [1] turn out when `FC(F)(F)c1nc(-c2ccc(Cn3cncn3)s2)no1` [Compound 1.2, 3-[5-(1,2,4-triazol-1-ylmethyl)-2-thienyl]-5-(trifluoromethyl)-1,2,4-oxadiazole] was run?
Answer: The pest or weed control at 200 ppm was no less than 80%.

Question: And the pest or weed control at 200 ppm [2]?
Answer: Its pest or weed control at 200 ppm is no less than 80%.

Question: What about the inhibition of growth at 20 ppm [3] of the same compound?
Answer: The inhibition of growth at 20 ppm was no less than 80%.

Question: Which results are given for `FC(F)(F)c1nc(-c2ccc(Cn3ccc4cccnc43)s2)no1` [Compound 1.8, 3-[5-(pyrrolo[2,3-b]pyridin-1-ylmethyl)-2-thienyl]-5-(trifluoromethyl)-1,2,4-oxadiazole]?
Answer: pest or weed control at 200 ppm [1]: ≥ 80%; pest or weed control at 200 ppm [2]: ≥ 80%; inhibition of growth at 20 ppm [3]: ≥ 80%

Question: For `O=[N+]([O-])c1cnn(Cc2ccc(-c3noc(C(F)(F)F)n3)s2)c1` [Compound 1.9, 3-[5-[(4-nitropyrazol-1-yl)methyl]-2-thienyl]-5-(trifluoromethyl)-1,2,4-oxadiazole], which pest or weed control at 200 ppm [1] is on record?
Answer: Its pest or weed control at 200 ppm is no less than 80%.

Question: What about the pest or weed control at 200 ppm [2] of the same compound?
Answer: The pest or weed control at 200 ppm was no less than 80%.

Question: And the inhibition of growth at 20 ppm [3]?
Answer: The inhibition of growth at 20 ppm was no less than 80%.

Question: With `N#Cc1cnn(Cc2ccc(-c3noc(C(F)(F)F)n3)s2)c1` [Compound 1.11, 1-[[5-[5-(trifluoromethyl)-1,2,4-oxadiazol-3-yl]-2-thienyl]methyl]pyrazole-4-carbonitrile] as the compound, how does the pest or weed control at 200 ppm [1] read?
Answer: The pest or weed control at 200 ppm was no less than 80%.

Question: And the pest or weed control at 200 ppm [2]?
Answer: Its pest or weed control at 200 ppm is no less than 80%.

Question: What about the inhibition of growth at 20 ppm [3] of the same compound?
Answer: The inhibition of growth at 20 ppm was no less than 80%.

Question: How did the pest or weed control at 200 ppm [1] turn out when `Cc1cc(N)n(Cc2ccc(-c3noc(C(F)(F)F)n3)s2)n1` [Compound 1.16, 5-methyl-2-[[5-[5-(trifluoromethyl)-1,2,4-oxadiazol-3-yl]-2-thienyl]methyl]pyrazol-3-amine] was run?
Answer: The pest or weed control at 200 ppm was no less than 80%.

Question: And the pest or weed control at 200 ppm [2]?
Answer: The pest or weed control at 200 ppm was no less than 80%.

Question: What about the inhibition of growth at 20 ppm [3] of the same compound?
Answer: Its inhibition of growth at 20 ppm is no less than 80%.

Question: Which results are given for `O=Cc1cnn(Cc2ccc(-c3noc(C(F)(F)F)n3)s2)c1` [Compound 1.22, 1-[[5-[5-(trifluoromethyl)-1,2,4-oxadiazol-3-yl]-2-thienyl]methyl]pyrazole-4-carbaldehyde]?
Answer: pest or weed control at 200 ppm [1]: ≥ 80%; pest or weed control at 200 ppm [2]: ≥ 80%; inhibition of growth at 20 ppm [3]: ≥ 80%

Question: `CC(c1ccc(-c2noc(C(F)(F)F)n2)s1)n1cc(C(=O)NCC(C)(C)C)cn1` (stereo not drawn) [Compound 1.66, N-(2,2-dimethylpropyl)-1-[1-[5-[5-(trifluoromethyl)-1,2,4-oxadiazol-3-yl]-2-thienyl]ethyl]pyrazole-4-carboxamide] was tested. Which pest or weed control at 200 ppm [1] did it give?
Answer: The pest or weed control at 200 ppm was no less than 80%.

Question: What about the pest or weed control at 200 ppm [2] of the same compound?
Answer: Its pest or weed control at 200 ppm is no less than 80%.

Question: What about the inhibition of growth at 20 ppm [3] of the same compound?
Answer: Its inhibition of growth at 20 ppm is no less than 80%.

Question: How did the pest or weed control at 200 ppm [1] turn out when `CON(C)C(=O)c1cnn(C(C)c2ccc(-c3noc(C(F)(F)F)n3)s2)c1` (stereo not drawn) [Compound 1.68, N-methoxy-N-methyl-1-[1-[5-[5-(trifluoromethyl)-1,2,4-oxadiazol-3-yl]-2-thienyl]ethyl]pyrazole-4-carboxamide] was run?
Answer: The pest or weed control at 200 ppm was no less than 80%.

Question: What about the pest or weed control at 200 ppm [2] of the same compound?
Answer: Its pest or weed control at 200 ppm is no less than 80%.

Question: And the inhibition of growth at 20 ppm [3]?
Answer: The inhibition of growth at 20 ppm was no less than 80%.

Question: `CNC(=O)c1cnn(C(C)c2ccc(-c3noc(C(F)(F)F)n3)s2)c1` (stereo not drawn) [Compound 1.70, N-methyl-1-[1-[5-[5-(trifluoromethyl)-1,2,4-oxadiazol-3-yl]-2-thienyl]ethyl]pyrazole-4-carboxamide] was tested. Which pest or weed control at 200 ppm [1] did it give?
Answer: The pest or weed control at 200 ppm was no less than 80%.

Question: What about the pest or weed control at 200 ppm [2] of the same compound?
Answer: Its pest or weed control at 200 ppm is no less than 80%.

Question: And the inhibition of growth at 20 ppm [3]?
Answer: The inhibition of growth at 20 ppm was no less than 80%.

Question: How did the pest or weed control at 200 ppm [1] turn out when `CCN(CC)C(=O)c1cnn(Cc2ccc(-c3noc(C(F)(F)F)n3)s2)c1` [Compound 1.113, N,N-diethyl-1-[[5-[5-(trifluoromethyl)-1,2,4-oxadiazol-3-yl]-2-thienyl]methyl]pyrazole-4-carboxamide] was run?
Answer: The pest or weed control at 200 ppm was no less than 80%.

Question: And the pest or weed control at 200 ppm [2]?
Answer: Its pest or weed control at 200 ppm is no less than 80%.

Question: For `CNC(=O)c1nccn1Cc1ccc(-c2noc(C(F)(F)F)n2)s1` [Compound 1.176, N-methyl-1-[[5-[5-(trifluoromethyl)-1,2,4-oxadiazol-3-yl]-2-thienyl]methyl]imidazole-2-carboxamide], which pest or weed control at 200 ppm [1] is on record?
Answer: The pest or weed control at 200 ppm was no less than 80%.

Question: What about the pest or weed control at 200 ppm [2] of the same compound?
Answer: The pest or weed control at 200 ppm was no less than 80%.

Question: With `O=C(NC1CC1)c1nccn1Cc1ccc(-c2noc(C(F)(F)F)n2)s1` [Compound 1.177, N-cyclopropyl-1-[[5-[5-(trifluoromethyl)-1,2,4-oxadiazol-3-yl]-2-thienyl]methyl]imidazole-2-carboxamide] as the compound, how does the pest or weed control at 200 ppm [1] read?
Answer: Its pest or weed control at 200 ppm is no less than 80%.

Question: What about the pest or weed control at 200 ppm [2] of the same compound?
Answer: The pest or weed control at 200 ppm was no less than 80%.
